Measured values from US6949516B2, “Dipeptide apoptosis inhibitors and the use thereof” (Cytovia, Inc., priority 1997, dated 2005).
Where a SMILES comes first, the peptide text is derived from it. The star is where a group is joined. Cbz = O=C(OCc1ccccc1)*; CH2F = FC*

Columns and labels:
[1] = tested on: PARP cleavage in Jurkat cells; test: Effect of Z-VD-fmk on PARP cleavage in antiFas-treated Jurkat cells (Example 24); type: cell-based, human
Procedure: Poly(ADP)ribose polymerase (PARP) was one of the first caspase-3 substrates identified and the cleavage of PARP is still considered to be a near-universal marker for caspase-3 activation and caspase-mediated apoptosis. The ability of an anti-apoptotic compound to block PARP cleavage is therefore a useful indicator of its ability to inhibit apoptosis. The potency of Z-VD-fmk in a PARP cleavage assay was tested using antiFas-treated Jurkat cells. 2×10^6 Jurkat cells were seeded in each well of a 6-well dish and pre-incubated with test compounds for 30 minutes. The cells were then challenged with 500 ng/mL of an agonistic antiFas antibody or PBS for 4 hours. The cells were then harvested, pelleted gently, washed two times with PBS and lysed in RIPA buffer. Aliquots of the lysate were analyzed by SDS-PAGE and the proteins were transferred to PVDF membranes for Western blotting. The primary antibody was a polyclonal antiPARP serum which cross-reacts with both full-length PARP and the caspase-3-generated cleavage product.

HeLa cells = test: Effect of Z-VD-fmk on TNF-α-induced cell death in HeLa cells (calcein AM, Example 25); type: cell-based; details: below 1 μM (data not shown)
Procedure: Tumor necrosis factor alpha (TNF-α) can trigger apoptosis in a number of cell types by initiating the caspase cascade and its apoptosis inducing activity can be inhibited by peptide-based caspase inhibitors. However, high concentrations of the inhibitors (50 μM or greater) is required to have good anti-apoptotic effect. HeLa cells, a cell line commonly employed in TNF-α cell death studies, was used here to determine the anti-apoptotic potency of Z-VD-fmk.
HeLa cells were seeded in 48-well multidishes at a density of 50,000 cells per well 24 hours before treatment. They were then pre-incubated with varying concentrations of Z-VD-fmk for 2 hours and challenged with TNF-α (25 ng/mL) and cycloheximide (CHX; 30 μg/mL). The cultures were incubated for an additional 24 hours and dead cells were removed by two washes with PBS. The density of surviving cells was then measured by incubating each culture for 45 minutes with calcein AM, a profluorescent dye which is taken up by living cells and converted to a fluorescent product. The resulting data were expressed as % control values (control values were cells incubated with cycloheximide but without TNF-α).
Z-VD-fmk provided good cytoprotection at concentrations approaching 100 nM.

Question: With `COC(=O)C[C@H](NC(=O)[C@H](C)NC(=O)[C@@H](NC(=O)OCc1ccccc1)C(C)C)C(=O)CF` [Z-VAD-fmk, reference compound] (Cbz-Val-Ala-Asp(OMe)-CH2F) as the compound, how does the “inhibition of PARP cleavage” value ([1]; 500 nM, antiFas-treated Jurkat cells) read?
Answer: much less effective

Question: What about the “inhibition of PARP cleavage” value ([1]; 5 μM, antiFas-treated Jurkat cells (data not shown)) of the same compound?
Answer: effective inhibitor

Question: What about the “cytoprotection against TNF-α-induced cell death” value (HeLa cells) of the same compound?
Answer: loses much of its cytoprotective properties
